Calls of active or inactive are those of the source. The rule behind the calls is not given here.
Key:
[1] = molecular target: T1, Estrogen receptor (Mus musculus) (UniProt O08537+P19785); assay: Anti-uterotropic effect as inhibition of 0.06 ug/injection estrone-induced uterine weight gain in mice at 10 ug/injection dose; Yes; format: functional
[2] = molecular target: Estrogen receptor (Rattus norvegicus) (UniProt P06211+Q62986); assay: Binding affinity for rat uterine estrogen receptor relative to estradiol; format: protein assay
[3] = molecular target: T1, Estrogen receptor (Mus musculus); assay: Uterotrophic effect in mice at 10 ug/injection dose; No; format: functional, tissue-based; conditions: Uterus
[4] = molecular target: T1, Estrogen receptor (Mus musculus)
Description: Anti-uterotropic effect as inhibition of 0.06 ug/injection estrone-induced uterine weight gain in mice at 10 ug/injection dose; No

T1 sequence (O08537 whole entry, looked up): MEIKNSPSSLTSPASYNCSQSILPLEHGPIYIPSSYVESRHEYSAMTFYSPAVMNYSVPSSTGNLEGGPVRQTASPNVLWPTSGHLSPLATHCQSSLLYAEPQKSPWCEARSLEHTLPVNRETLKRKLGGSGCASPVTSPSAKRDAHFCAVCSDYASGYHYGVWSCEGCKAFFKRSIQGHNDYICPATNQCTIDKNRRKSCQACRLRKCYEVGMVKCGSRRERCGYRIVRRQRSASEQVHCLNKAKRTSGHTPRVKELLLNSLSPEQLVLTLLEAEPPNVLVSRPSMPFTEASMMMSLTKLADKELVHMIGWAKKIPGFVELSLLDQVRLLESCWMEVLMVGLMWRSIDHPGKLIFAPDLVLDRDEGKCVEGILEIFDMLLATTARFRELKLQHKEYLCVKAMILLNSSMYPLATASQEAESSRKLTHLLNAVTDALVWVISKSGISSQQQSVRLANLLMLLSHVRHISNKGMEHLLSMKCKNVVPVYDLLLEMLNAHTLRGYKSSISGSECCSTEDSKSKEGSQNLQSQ
T1 sequence (P19785 whole entry, looked up): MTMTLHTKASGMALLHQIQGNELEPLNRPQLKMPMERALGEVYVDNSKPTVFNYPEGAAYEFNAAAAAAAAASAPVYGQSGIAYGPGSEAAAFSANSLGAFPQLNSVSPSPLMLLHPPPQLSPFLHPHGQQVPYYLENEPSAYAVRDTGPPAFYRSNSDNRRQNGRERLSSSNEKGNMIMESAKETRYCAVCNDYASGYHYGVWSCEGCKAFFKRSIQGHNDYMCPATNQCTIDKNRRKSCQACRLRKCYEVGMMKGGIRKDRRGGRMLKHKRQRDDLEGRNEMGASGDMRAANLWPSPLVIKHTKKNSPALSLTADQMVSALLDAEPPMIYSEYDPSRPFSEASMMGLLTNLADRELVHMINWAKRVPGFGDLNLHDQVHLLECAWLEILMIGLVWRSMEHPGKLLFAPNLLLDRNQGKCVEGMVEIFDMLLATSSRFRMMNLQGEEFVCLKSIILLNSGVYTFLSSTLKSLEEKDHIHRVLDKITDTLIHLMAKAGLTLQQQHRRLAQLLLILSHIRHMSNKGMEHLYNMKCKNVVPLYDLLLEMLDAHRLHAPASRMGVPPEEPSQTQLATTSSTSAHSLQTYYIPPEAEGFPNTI

Row | SMILES | RBA [2] [%] | Uterotrophic activity [3] | Antiuterotrophic activity [4] | Antiuterotrophic activity [1]
1 | CCCCN(C)C(=O)CCCCCCCCCC[C@@H]1Cc2cc(O)ccc2[C@H]2CC[C@]3(C)[C@@H](O)CC[C@H]3[C@H]12 | 1.2 | inactive |  | inactive
2 | CCCCN(C)C(=O)CCCCCCCCCC[C@H]1C[C@H](O)[C@@]2(C)CC[C@@H]3c4ccc(O)cc4CC[C@H]3[C@H]12 | 0.05 | inactive | inactive | 
3 | CCCCN(C)C(=O)CCCCCCCCCCC1C[C@H](O)[C@@]2(C)CC[C@@H]3c4ccc(O)cc4CC[C@H]3[C@H]12 (some centres not stated) | 0.001 | inactive | inactive | 
4 | CCCCN(C)C(=O)CCCCCCCCCC[C@]1(O)CC[C@H]2[C@@H]3CCc4cc(O)ccc4[C@H]3CC[C@@]21C | 0.01 | inactive | inactive | 
5 | CCCCN(C)C(=O)CCCCCCCCC1C[C@H](O)[C@@]2(C)CC[C@@H]3c4ccc(O)cc4CC[C@H]3[C@H]12 (some centres not stated) | < 0.001 | inactive | inactive | 

Second part, led by results:

Row | RBA [2] [%] | Uterotrophic activity [3] | Antiuterotrophic activity [4] | SMILES | Antiuterotrophic activity [1]
6 | < 0.001 | inactive | inactive | CCCCN(C)C(=O)CCCCCCCCCCCC[C@@H]1C[C@H](O)[C@@]2(C)CC[C@@H]3c4ccc(O)cc4CC[C@H]3[C@H]12 | 
7 | < 0.001 | inactive | inactive | CCCCN(C)C(=O)CCCCCCCCCCCC[C@H]1C[C@H](O)[C@@]2(C)CC[C@@H]3c4ccc(O)cc4CC[C@H]3[C@H]12 | 
8 | < 0.001 |  |  | CCCCN(C)C(=O)CCCCCCCCCC[C@@H]1C[C@H](O)[C@@]2(C)CC[C@@H]3c4ccc(O)cc4CC[C@H]3[C@H]12 | 

Source: ChEMBL document CHEMBL1129085
